# Measured values published in BindingDB's records for doi:10.1016/j.ejmech.2015.10.016 (University of Groningen, 2015).
# Target: T1, Histone acetyltransferase KAT8 (Homo sapiens, UniProt Q9H7Z6)
# T1 sequence (Q9H7Z6 whole entry): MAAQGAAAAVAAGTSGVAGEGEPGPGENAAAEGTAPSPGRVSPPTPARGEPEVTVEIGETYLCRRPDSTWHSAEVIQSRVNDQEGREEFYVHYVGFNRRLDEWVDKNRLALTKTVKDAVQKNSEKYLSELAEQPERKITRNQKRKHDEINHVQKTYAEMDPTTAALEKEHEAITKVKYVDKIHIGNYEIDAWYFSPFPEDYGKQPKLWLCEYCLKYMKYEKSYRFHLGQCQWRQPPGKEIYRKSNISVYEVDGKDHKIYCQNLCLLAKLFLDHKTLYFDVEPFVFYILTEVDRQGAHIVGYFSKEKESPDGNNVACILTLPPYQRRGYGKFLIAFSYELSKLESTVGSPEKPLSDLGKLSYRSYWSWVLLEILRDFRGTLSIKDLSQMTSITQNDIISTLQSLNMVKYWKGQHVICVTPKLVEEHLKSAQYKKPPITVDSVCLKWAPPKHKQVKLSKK
# Assay: Inhibition of recombinant N-terminal His6-tagged KAT8 (unknown origin) expressed in Escherichia Coli BL21 DE3 cells assessed as reduction of Co A level using histone H4 substrate after 15 mins by CPM fluorescence assay
row,SMILES,IC50
1,CCCCCc1cccc(O)c1C(=O)O [6-Pentylsalicylic Acid],> 631 µM
2,O=C(O)c1c(O)cccc1CCCCCCCCCCCO,525 µM
3,CCCCCCCSCC(=O)c1ccccc1O,> 631 µM
4,O=C(O)c1c(O)cccc1CCCCCO,> 631 µM
5,CCCCCCCCCCCCCCCc1ccc(O)c(C(=O)O)c1,263 µM
6,CCCCCCCCCCc1ccc(O)c(C(=O)O)c1,191 µM
7,CC1=NN(c2ccc(C(=O)O)cc2)C(=O)/C1=C/c1ccc(-c2cc(C)c(C)cc2[N+](=O)[O-])o1,> 631 µM
8,CCCCCCCCCCc1cccc(O)c1C(=O)O,123 µM
9,CCCCCc1ccc(O)c(C(=O)O)c1,> 631 µM
